Legend:
[1] = tested on: MDA-MB-231; test: drug sensitivity score (DSS), cytotoxicity CellTox Green; higher = more cytotoxic; extreme values may be limits of the assay; conditions: 72 h
[2] = tested on: MDA-MB-231; test: drug sensitivity score (DSS), cell viability CellTiter-Glo; higher = more sensitive; extreme values may be limits of the assay; conditions: 72 h
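Throughout, for drug sensitivity score (DSS), cytotoxicity CellTox Green: DSS summarises each dose–response curve by combining IC50, EC50, maximal inhibition and efficacy across drug concentrations.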

| SMILES | drug sensitivity score ([1]; shRNA: shPPFIA1_1) | drug sensitivity score ([1]; shRNA: shScramble) | drug sensitivity score ([2]; shRNA: shPPFIA1_1) | drug sensitivity score ([2]; shRNA: shScramble) |
| --- | --- | --- | --- | --- |
| c1cn2cc(-c3ccc4cn[nH]c4c3)nc(Nc3ccc(N4CCOCC4)cc3)c2n1 [Entospletinib] | 10.3 DSS | 0 DSS | 0.9 DSS | 0 DSS |
| CNC(=O)c1ccc(N2C(=S)N(c3ccc(C#N)c(C(F)(F)F)c3)C(=O)C2(C)C)cc1F [Enzalutamide] | 0 DSS | 0 DSS | 0 DSS | 0 DSS |
| Cn1cc(C2=C(c3cn(C4CCN(Cc5ccccn5)CC4)c4ccccc34)C(=O)NC2=O)c2ccccc21 [Enzastaurin] | 0 DSS | 0 DSS | 5.6 DSS | 2.8 DSS |
| NS(=O)(=O)NCCNc1nonc1/C(=N/O)Nc1ccc(F)c(Br)c1 [Epacadostat] | 0 DSS | 0 DSS | 0 DSS | 0 DSS |
| C[C@]12CC[C@@H]3c4ccc(OC(=O)N(CCCl)CCCl)cc4CC[C@H]3[C@@H]1CC[C@@H]2O [Estramustine] | 0 DSS | 0 DSS | 0 DSS | 0 DSS |
| COc1cc([C@@H]2c3cc4c(cc3[C@@H](O[C@@H]3O[C@@H]5CO[C@@H](C)O[C@H]5[C@H](O)[C@H]3O)[C@H]3COC(=O)[C@H]23)OCO4)cc(OC)c1O [Etoposide] | 1.6 DSS | 1.8 DSS | 0 DSS | 2 DSS |
| C=C1C[C@@H]2[C@H](CC[C@]3(C)C(=O)CC[C@@H]23)[C@@]2(C)C=CC(=O)C=C12 [Exemestane] | 0 DSS | 0 DSS | 0 DSS | 1.4 DSS |
| Cc1nc(C(=O)NCC(=O)O)c(O)c2ccc(Oc3ccccc3)cc12 [FG-4592] | 0 DSS | 0 DSS | 2.2 DSS | 2.9 DSS |
| CCn1c(=O)c(-c2ccc(Cl)cc2Cl)cc2cnc(Nc3ccc(N4CCNCC4)c(F)c3)nc21 [FRAX486] | 0 DSS | 0 DSS | 0 DSS | 2.8 DSS |
| O=S(=O)(c1cccc2cnccc12)N1CCCNCC1 [Fasudil] | 1.6 DSS | 2.1 DSS | 2.6 DSS | 1.4 DSS |
| Cc1cnc(Nc2ccc(OCCN3CCCC3)cc2)nc1Nc1cccc(S(=O)(=O)NC(C)(C)C)c1 [Fedratinib] | 2.2 DSS | 5.7 DSS | 1.9 DSS | 9.2 DSS |
| CON(C)C(=O)N1N=C(c2cc(F)ccc2F)S[C@@]1(CCCN)c1ccccc1 [Filanesib] | 14.1 DSS | 9.3 DSS | 0 DSS | 8.4 DSS |
| O=C(Nc1nc2cccc(-c3ccc(CN4CCS(=O)(=O)CC4)cc3)n2n1)C1CC1 [Filgotinib] | 0 DSS | 0 DSS | 0 DSS | 0.2 DSS |
| CC(C)(C)NC(=O)[C@H]1CC[C@H]2[C@@H]3CC[C@H]4NC(=O)C=C[C@]4(C)[C@H]3CC[C@]12C [Finasteride] | 0 DSS | 0 DSS | 0 DSS | 0 DSS |
| CCCCCCCCc1ccc(CCC(N)(CO)CO)cc1 [Fingolimod] | 6.7 DSS | 6.8 DSS | 7.5 DSS | 8 DSS |
| O=c1[nH]c(=O)n([C@H]2C[C@H](O)[C@@H](CO)O2)cc1F [Floxuridine] | 0 DSS | 0.2 DSS | 14.6 DSS | 19.7 DSS |

| SMILES | drug sensitivity score ([1]; shRNA: shPPFIA1_1) | drug sensitivity score ([1]; shRNA: shScramble) | drug sensitivity score ([2]; shRNA: shPPFIA1_1) | drug sensitivity score ([2]; shRNA: shScramble) |
| --- | --- | --- | --- | --- |
| Nc1nc(F)nc2c1ncn2[C@@H]1O[C@H](CO)[C@@H](O)[C@@H]1O [Fludarabine] | 0 DSS | 0 DSS | 0.4 DSS | 2.5 DSS |
| O=c1[nH]cc(F)c(=O)[nH]1 [Fluorouracil] | 0 DSS | 0 DSS | 0 DSS | 0.6 DSS |
| CC(C)C(=O)Nc1ccc([N+](=O)[O-])c(C(F)(F)F)c1 [Flutamide] | 0 DSS | 0 DSS | 0 DSS | 0.3 DSS |
| COc1cc2c(Oc3ccc(NC(=O)C4(C(=O)Nc5ccc(F)cc5)CC4)cc3F)ccnc2cc1OCCCN1CCOCC1 [Foretinib] | 0 DSS | 0 DSS | 0 DSS | 2.2 DSS |
| COc1cc(Nc2ncc(F)c(Nc3ccc4c(n3)N(COP(=O)(O)O)C(=O)C(C)(C)O4)n2)cc(OC)c1OC [Fostamatinib] | 1.6 DSS | 0.8 DSS | 1 DSS | 5.3 DSS |
| C[C@]12CC[C@@H]3c4ccc(O)cc4C[C@@H](CCCCCCCCC[S+]([O-])CCCC(F)(F)C(F)(F)F)[C@H]3[C@@H]1CC[C@@H]2O (some centres undefined) [Fulvestrant] | 0 DSS | 0 DSS | 0 DSS | 0 DSS |
| Cn1nccc1Nc1nccc(-c2ccn([C@H](CO)c3ccc(Cl)c(F)c3)c(=O)c2)n1 [GDC-0994] | 0 DSS | 3 DSS | 0 DSS | 3.5 DSS |
| CNc1nc(Nc2cn(C(C)(C)C#N)nc2C)ncc1C(F)(F)F [GNE-0877] | 0 DSS | 0 DSS | 0 DSS | 0 DSS |
| CCNc1nc(Nc2cc(F)c(C(=O)N3CCOCC3)cc2OC)ncc1C(F)(F)F [GNE-7915] | 0 DSS | 0 DSS | 0 DSS | 0 DSS |
| CCCc1cc(C)[nH]c(=O)c1CNC(=O)c1cc(-c2ccnc(N3CCN(C)CC3)c2)cc2c1cnn2C(C)C [GSK343] | 3.8 DSS | 1.9 DSS | 6 DSS | 3.1 DSS |
| CCCOc1ccn2c(C(C)=O)cc(-c3ccccc3S(C)(=O)=O)c2c1 [GSK2801] | 0 DSS | 0 DSS | 0 DSS | 0 DSS |
| CCOC(=O)CCNc1cc(N2CCc3ccccc3CC2)nc(-c2ccccn2)n1 [GSK-J4] | 7.4 DSS | 8.3 DSS | 10.2 DSS | 11.3 DSS |
| C[C@@H]1C=C2C(=O)O[C@@H]3CC[C@H](C1)[C@]23O [Galiellalactone] | 2.9 DSS | 1.8 DSS | 0.2 DSS | 2.1 DSS |
| Cc1cccc(-c2nn3c(c2-c2ccnc4ccc(C(N)=O)cc24)CCC3)n1 [Galunisertib] | 0 DSS | 0 DSS | 0 DSS | 0 DSS |
| Cc1cc(Nc2cc(CN3CCOCC3)c3nc(C)c(Cc4ccc(Cl)cc4F)n3n2)n[nH]1 [Gandotinib] | 2.1 DSS | 1.7 DSS | 1.6 DSS | 4.4 DSS |

Source: the supplement of paper PMC10920090
